Experiment: Thermal gravimetric analysis of the ILs and DSILs
Assay type: physicochemical
Conditions: TGA under nitrogen, 10° C./min
Procedure: Thermal behavior was determined using a Mettler Toledo Stare TGA/DSC1 unit (Mettler Toledo, Leicester, UK) under nitrogen. Samples between 3 and 10 mg were placed in alumina crucibles (70 μL) and heated from room temperature to 75° C. at a heating rate of 10° C./min. An isotherm at 75° C. was maintained for 30 min to eliminate all volatiles, if any. After the isothermal step, the temperature was ramped to 800° C. at a heating rate of 10° C./min. The data was analyzed using STARe Evaluation software.

Row | Compound | T5% (decomposition temperature of 5% sample) [°C] | T50% (decomposition temperature of 50% sample) [°C]
1 | CC(=O)[O-].C[N+](C)(C)CCO [[Ch][Ace], cholinium acetate] | 173.1 | 211.4
2 | C[N+](C)(C)CCO.NCCCC[C@H](N)C(=O)[O-] [[Ch][Lys], cholinium lysinate] | 155.9 | 218.1
3 | CCCCCCCC(=O)[O-].C[N+](C)(C)CCO [[Ch][Oct], cholinium octanoate] | 180.7 | 209.5
4 | CCCCCCCCCCCCCCCC(=O)[O-].C[N+](C)(C)CCO [[Ch][Pal], cholinium palmitate] | 177.7 | 225.3

From US20220195666A1, “USE OF A PLURALITY OF SALT IONIC LIQUIDS IN THE PRETREATMENT OF BIOMASS” (priority 2020, published 2022)
